PubChem BioAssay AID1919006 (Molecular Pharmacology Branch, DTP, NCI, 2023)
Where “and” joins values, the source holds several entries; their conditions need not be identical. Identical values can stand only once.

System: 885512-296-R-J2-PDC complex spheroid growth, % test/control
Assay: Anticancer human tumor 885512-296-R-J2-PDC patient-derived breast carcinoma cell line growth inhibition [AhR]
Details: for viability, T/C: stronger effect = lower value
Outline: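 Complex tumor spheroids co-cultured with HUVEC and human MSC stroma; AhR antagonists tested in combination with standard-of-care and investigational agents. Top concentration at or near clinical Cmax (else 10 microM), half-log dilutions; growth expressed as percent test/control.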

[1] = curve of first compound, second compound 0.1 µM
[2] = curve of first compound, second compound 0.316 µM
[3] = curve of first compound, second compound 1 µM
[4] = curve of first compound, second compound 3.16 µM
[5] = curve of first compound, second compound 10 µM
[6] = second compound 0.1 µM, first compound 0.0316 µM
[7] = second compound 0.1 µM, first compound 0.1 µM
[8] = second compound 0.1 µM, first compound 0.316 µM
[9] = second compound 0.1 µM, first compound 1 µM
[10] = second compound 0.1 µM, first compound 3.16 µM
[11] = second compound 0.1 µM, first compound 10 µM
[12] = second compound 0.316 µM, first compound 0.0316 µM
[13] = second compound 0.316 µM, first compound 0.1 µM
[14] = second compound 0.316 µM, first compound 0.316 µM
[15] = second compound 0.316 µM, first compound 1 µM
[16] = second compound 0.316 µM, first compound 3.16 µM
[17] = second compound 0.316 µM, first compound 10 µM
[18] = second compound 1 µM, first compound 0.0316 µM
[19] = second compound 1 µM, first compound 0.1 µM
[20] = second compound 1 µM, first compound 0.316 µM
[21] = second compound 1 µM, first compound 1 µM
[22] = second compound 1 µM, first compound 3.16 µM
[23] = second compound 1 µM, first compound 10 µM
[24] = second compound 3.16 µM, first compound 0.0316 µM
[25] = second compound 3.16 µM, first compound 0.1 µM
[26] = second compound 3.16 µM, first compound 0.316 µM
[27] = second compound 3.16 µM, first compound 1 µM
[28] = second compound 3.16 µM, first compound 3.16 µM
[29] = second compound 3.16 µM, first compound 10 µM
[30] = second compound 10 µM, first compound 0.0316 µM
[31] = second compound 10 µM, first compound 0.1 µM
[32] = second compound 10 µM, first compound 0.316 µM
[33] = second compound 10 µM, first compound 1 µM
[34] = second compound 10 µM, first compound 3.16 µM
[35] = second compound 10 µM, first compound 10 µM
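Also: spheroids exposed to compounds for seven days.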

Work on `O=C(c1cc(Cc2n[nH]c(=O)c3ccccc23)ccc1F)N1CCN(C(=O)C2CC2)CC1` + CC(CO)NC(=O)c1cc(-c2ccc(Cl)cc2)nn(-c2cnn(C)c2)c1=O yielded an IC50 [1] of 6930 nM, an IC50 [2] of 6970 nM and an IC50 [3] of 7140 nM. It also gave an IC50 [4] of 7140 nM, an IC50 [5] of 4620 nM and a viability, T/C [6] of 98.1%. The viability, T/C [7] was 106%, the viability, T/C [8] was 110% and the viability, T/C [9] was 137%. It also gave a viability, T/C [10] of 98.1%, a viability, T/C [11] of 27.5% and a viability, T/C [12] of 102%. The viability, T/C [13] was 89.7%, the viability, T/C [14] was 112% and the viability, T/C [15] was 121%. The viability, T/C [16] was 95.5%, the viability, T/C [17] was 29.2% and the viability, T/C [18] was 96.4%. For the same molecule, the viability, T/C [19] was 102%, the viability, T/C [20] was 105% and the viability, T/C [21] was 118%. The viability, T/C [22] was 104%, the viability, T/C [23] was 27.8% and the viability, T/C [24] was 94.7%. It also gave a viability, T/C [25] of 98.4%, a viability, T/C [26] of 111% and a viability, T/C [27] of 113%. For the same molecule, the viability, T/C [28] was 91.9%, the viability, T/C [29] was 32.5% and the viability, T/C [30] was 98.1%. For the same molecule, the viability, T/C [31] was 96%, the viability, T/C [32] was 109% and the viability, T/C [33] was 93.6%. The viability, T/C [34] was 62.1% and the viability, T/C [35] was 25.8%.
In the case of `CC1COCCN1c1cc(-c2ccnn2C)c2ccnc(-c3ccn[nH]3)c2n1` (configuration not stated), the viability, T/C (compound 0.00316 µM) is reported as 82.9% and 88.1% and 101%, the viability, T/C (compound 0.01 µM) is reported as 87.9% and 89.4% and 87.5% and the viability, T/C (compound 0.0316 µM) is reported as 51.9% and 54.7% and 68%. For the same molecule, the viability, T/C (compound 0.1 µM) was 10.5% and 10.1% and 13%, the viability, T/C (compound 0.316 µM) was 3.44% and 3.12% and 2.94% and the viability, T/C (compound 1 µM) was 2.43% and 2.64% and 1.91%. The IC50 (curve of compound) was 34 nM and 36 nM and 45.5 nM.
`CC(C)c1c(-c2ccccc2)nc2c(C#N)c[nH]n2c1=O` + Cc1ccccc1N=Nc1ccc(NC(=O)c2ccnn2C)c(C)c1 was tested, and the IC50 [1] was over 10000 nM, the IC50 [2] was over 10000 nM and the IC50 [3] was over 10000 nM. For the same molecule, the IC50 [4] was over 10000 nM, the IC50 [5] was under 31.6 nM and the viability, T/C [6] was 105%. It also gave a viability, T/C [7] of 106%, a viability, T/C [8] of 108% and a viability, T/C [9] of 110%. For the same molecule, the viability, T/C [10] was 111%, the viability, T/C [11] was 104% and the viability, T/C [12] was 106%. The viability, T/C [13] was 104%, the viability, T/C [14] was 111% and the viability, T/C [15] was 104%. It also gave a viability, T/C [16] of 102%, a viability, T/C [17] of 99.4% and a viability, T/C [18] of 96.2%. For the same molecule, the viability, T/C [19] was 94.4%, the viability, T/C [20] was 98.4% and the viability, T/C [21] was 98.6%. For the same molecule, the viability, T/C [22] was 90%, the viability, T/C [23] was 96.4% and the viability, T/C [24] was 80.9%. The viability, T/C [25] was 79.2%, the viability, T/C [26] was 82.7% and the viability, T/C [27] was 88%. The viability, T/C [28] was 81.8%, the viability, T/C [29] was 67.3% and the viability, T/C [30] was 45.5%. It also gave a viability, T/C [31] of 50.8%, a viability, T/C [32] of 55.2% and a viability, T/C [33] of 45.4%. The viability, T/C [34] was 47.4% and the viability, T/C [35] was 42%.
`Nc1ncn(C2CC(O)C(CO)S2)c(=O)n1` (configuration not stated) + Cc1cncc(-c2nc(NCCc3c[nH]c4ccccc34)c3ncn(C(C)C)c3n2)c1 was tested, and the IC50 [1] was 96.6 nM, the IC50 [2] was 93.9 nM and the IC50 [3] was 44.8 nM. The IC50 [4] was 3.46 nM, the IC50 [5] was under 0.949 nM and the viability, T/C (second compound 0.1 µM, first compound 0.000949 µM) was 99.5%. The viability, T/C (second compound 0.1 µM, first compound 0.003 µM) was 110%, the viability, T/C (second compound 0.1 µM, first compound 0.00949 µM) was 107% and the viability, T/C (second compound 0.1 µM, first compound 0.03 µM) was 79%. It also gave a viability, T/C (second compound 0.1 µM, first compound 0.0949 µM) of 53%, a viability, T/C (second compound 0.1 µM, first compound 0.3 µM) of 40.9% and a viability, T/C (second compound 0.316 µM, first compound 0.000949 µM) of 98%. For the same molecule, the viability, T/C (second compound 0.316 µM, first compound 0.003 µM) was 94.1%, the viability, T/C (second compound 0.316 µM, first compound 0.00949 µM) was 99.1% and the viability, T/C (second compound 0.316 µM, first compound 0.03 µM) was 75.9%. For the same molecule, the viability, T/C (second compound 0.316 µM, first compound 0.0949 µM) was 51.3%, the viability, T/C (second compound 0.316 µM, first compound 0.3 µM) was 38.8% and the viability, T/C (second compound 1 µM, first compound 0.000949 µM) was 67.6%. For the same molecule, the viability, T/C (second compound 1 µM, first compound 0.003 µM) was 67.8%, the viability, T/C (second compound 1 µM, first compound 0.00949 µM) was 70.7% and the viability, T/C (second compound 1 µM, first compound 0.03 µM) was 55.7%. The viability, T/C (second compound 1 µM, first compound 0.0949 µM) was 38.8%, the viability, T/C (second compound 1 µM, first compound 0.3 µM) was 33.1% and the viability, T/C (second compound 3.16 µM, first compound 0.000949 µM) was 47.4%. The viability, T/C (second compound 3.16 µM, first compound 0.003 µM) was 54.8%, the viability, T/C (second compound 3.16 µM, first compound 0.00949 µM) was 47.8% and the viability, T/C (second compound 3.16 µM, first compound 0.03 µM) was 42.5%. The viability, T/C (second compound 3.16 µM, first compound 0.0949 µM) was 36%, the viability, T/C (second compound 3.16 µM, first compound 0.3 µM) was 27.5% and the viability, T/C (second compound 10 µM, first compound 0.000949 µM) was 21%. It also gave a viability, T/C (second compound 10 µM, first compound 0.003 µM) of 23.5%, a viability, T/C (second compound 10 µM, first compound 0.00949 µM) of 18.9% and a viability, T/C (second compound 10 µM, first compound 0.03 µM) of 15%. For the same molecule, the viability, T/C (second compound 10 µM, first compound 0.0949 µM) was 17.4% and the viability, T/C (second compound 10 µM, first compound 0.3 µM) was 13.9%.
